Experimental data published in patent publication US7511144B2, “Reverse hydroxamic acid derivatives” (Kaken Pharmaceutical Co., Ltd., priority 2001, dated 2009).
Where two headings read alike, the source gives them in different places.

What was measured:
[1] = tested on: TNF-α production (release); test: Study for suppression of TNF-α production (release) in vivo; conditions: male Lewis rats, LPS 1 mL/kg i.v.; test compound 3 mg/kg subcutaneous 30 minutes later; plasma TNF-α 90 minutes after LPS (ELISA)
[2] = target: T1, Human MMP13 (Homo sapiens, UniProt P45452); test: MMP13 inhibition experiment; type: biochemical; conditions: concentration required for 50% inhibition of enzyme activity; read-out: IC50 value MMP-13
T1 construct: purchased Chemicon CC068

[3] = target: T2, Human MMP14 (Homo sapiens, UniProt P50281); test: MMP14 inhibition experiment; type: biochemical; conditions: concentration required for 50% inhibition of enzyme activity; read-out: IC50 value MMP-14
T2 construct: purchased Biogenesis or Calbiochem 5980-1461 or 475935
Method in brief: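 Fluorescence assay: substrate Dnp-Pro-Cha-Gly-Cys(Me)-His-Ala-Lys(Nma)-NH2 (20 μM before equal-volume mixing) incubated at 37° C for 5 hours with 4 ng human MMP14.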

[4] = target: T3, Human MMP17 (Homo sapiens, UniProt Q9ULZ9); test: MMP17 inhibition test; type: biochemical; conditions: concentration required for 50% inhibition of enzyme activity; read-out: IC50 value MMP-17
T3 construct: purchased Calbiochem 475940
T3 sequence (Q9ULZ9 126-300 limits assumed): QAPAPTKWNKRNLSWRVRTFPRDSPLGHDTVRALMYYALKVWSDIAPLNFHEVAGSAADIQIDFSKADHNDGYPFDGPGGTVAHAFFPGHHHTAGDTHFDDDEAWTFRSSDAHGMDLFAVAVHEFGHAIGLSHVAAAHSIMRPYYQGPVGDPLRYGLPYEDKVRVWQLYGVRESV

[5] = target: T4, Human MMP1 (Homo sapiens, UniProt P03956); test: MMP1 inhibition experiment; type: biochemical; conditions: read-out: IC50 value MMP-1
T4 construct: purchased Calbiochem 444208
T4 sequence (P03956 100-469): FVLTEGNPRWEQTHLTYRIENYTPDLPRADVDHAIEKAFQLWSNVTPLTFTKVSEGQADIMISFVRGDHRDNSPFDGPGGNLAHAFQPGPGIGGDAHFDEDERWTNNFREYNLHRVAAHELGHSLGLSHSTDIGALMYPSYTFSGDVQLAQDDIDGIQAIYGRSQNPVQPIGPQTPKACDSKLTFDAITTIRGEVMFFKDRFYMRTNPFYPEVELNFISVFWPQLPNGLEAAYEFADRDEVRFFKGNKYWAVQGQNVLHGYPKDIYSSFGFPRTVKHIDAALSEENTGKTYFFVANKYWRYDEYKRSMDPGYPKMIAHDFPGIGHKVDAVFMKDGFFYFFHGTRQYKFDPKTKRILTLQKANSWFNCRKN

[6] = target: T5, Human MMP3 (Homo sapiens, UniProt P08254); test: MMP3 inhibition experiment; type: biochemical; conditions: concentration required for 50% inhibition of enzyme activity; read-out: IC50 value MMP-3
T5 construct: purchased Calbiochem 444217
T5 sequence (P08254 100-272 limits assumed): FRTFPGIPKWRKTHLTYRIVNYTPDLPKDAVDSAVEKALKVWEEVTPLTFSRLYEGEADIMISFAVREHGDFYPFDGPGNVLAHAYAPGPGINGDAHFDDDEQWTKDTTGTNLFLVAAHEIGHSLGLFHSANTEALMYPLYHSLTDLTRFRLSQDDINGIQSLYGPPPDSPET
Method in brief: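 Recombinant human MMP3 (5 ng) mixed with fluorogenic peptide NFF-3 (20 μM stock solution) and incubated 5 hours at 37° C; cleavage followed by fluorescence of the quenched substrate.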

[7] = target: T6, Human MMP9 (Homo sapiens, UniProt P14780); test: MMP9 inhibition experiment; type: biochemical; conditions: read-out: IC50 value MMP-9
T6 construct: purchased Calbiochem 444231
T6 sequence (P14780 107-707 limits assumed): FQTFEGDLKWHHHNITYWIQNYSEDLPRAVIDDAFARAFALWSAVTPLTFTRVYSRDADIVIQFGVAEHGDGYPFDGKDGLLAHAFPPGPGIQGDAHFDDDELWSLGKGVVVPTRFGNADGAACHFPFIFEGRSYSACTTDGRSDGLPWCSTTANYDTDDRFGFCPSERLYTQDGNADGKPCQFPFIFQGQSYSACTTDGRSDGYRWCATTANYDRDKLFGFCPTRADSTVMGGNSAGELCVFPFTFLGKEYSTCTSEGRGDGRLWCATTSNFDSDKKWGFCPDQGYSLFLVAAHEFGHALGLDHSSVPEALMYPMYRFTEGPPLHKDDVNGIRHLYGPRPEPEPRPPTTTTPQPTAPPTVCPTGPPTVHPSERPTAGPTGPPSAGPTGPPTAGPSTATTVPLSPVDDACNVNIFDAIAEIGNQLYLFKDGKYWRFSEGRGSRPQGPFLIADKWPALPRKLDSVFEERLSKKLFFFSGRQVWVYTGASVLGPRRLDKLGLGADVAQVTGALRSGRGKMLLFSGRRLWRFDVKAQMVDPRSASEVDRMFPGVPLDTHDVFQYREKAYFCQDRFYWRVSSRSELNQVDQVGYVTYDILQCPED

[8] = target: T7, TACE (Homo sapiens, UniProt P78536); test: TACE inhibition experiment (in vitro); type: biochemical
T7 construct: made in house; host or cells: mammalian cells or insect cells
T7 sequence (P78536 215-824): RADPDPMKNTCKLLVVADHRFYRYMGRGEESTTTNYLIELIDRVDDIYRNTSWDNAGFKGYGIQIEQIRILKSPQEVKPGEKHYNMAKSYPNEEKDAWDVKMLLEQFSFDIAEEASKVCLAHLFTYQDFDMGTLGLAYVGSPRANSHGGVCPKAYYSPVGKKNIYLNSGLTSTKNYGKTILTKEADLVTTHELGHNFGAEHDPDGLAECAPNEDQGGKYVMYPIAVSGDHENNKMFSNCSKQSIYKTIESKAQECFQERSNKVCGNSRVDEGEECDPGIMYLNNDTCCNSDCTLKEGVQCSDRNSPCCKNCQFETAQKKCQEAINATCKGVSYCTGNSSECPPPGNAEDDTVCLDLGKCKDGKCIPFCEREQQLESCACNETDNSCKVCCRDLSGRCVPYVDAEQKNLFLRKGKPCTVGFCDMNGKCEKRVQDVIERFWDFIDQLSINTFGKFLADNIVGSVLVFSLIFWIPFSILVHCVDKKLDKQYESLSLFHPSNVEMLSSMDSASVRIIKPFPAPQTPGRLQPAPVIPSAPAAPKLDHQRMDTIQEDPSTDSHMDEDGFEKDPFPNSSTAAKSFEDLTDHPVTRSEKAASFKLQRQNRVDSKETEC

[9] = target: T8, Human MMP8 (Homo sapiens, UniProt P22894); test: MMP8 inhibition experiment; type: biochemical; conditions: concentration required for 50% inhibition of enzyme activity; read-out: IC50 value MMP-8
T8 construct: purchased Calbiochem 444229
T8 sequence (P22894 101-467): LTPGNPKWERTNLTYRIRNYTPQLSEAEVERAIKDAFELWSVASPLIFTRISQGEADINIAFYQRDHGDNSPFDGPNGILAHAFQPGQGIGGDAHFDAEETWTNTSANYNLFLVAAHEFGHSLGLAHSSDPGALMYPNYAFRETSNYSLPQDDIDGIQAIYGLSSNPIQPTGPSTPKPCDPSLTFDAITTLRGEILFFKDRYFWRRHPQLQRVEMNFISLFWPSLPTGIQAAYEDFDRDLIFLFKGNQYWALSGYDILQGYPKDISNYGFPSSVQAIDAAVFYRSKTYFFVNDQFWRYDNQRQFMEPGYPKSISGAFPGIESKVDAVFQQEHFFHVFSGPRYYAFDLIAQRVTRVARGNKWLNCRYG
Method in brief: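 Human MMP8 activated with APMA for 1 h at 37° C, then incubated with fluorogenic peptide MOCAc-Pro-Leu-Gly-Leu-A2pr(Dnp)-Ala-Arg-NH2 (20 μM stock) for 5 hours at 37° C. Fluorescent substrate cleavage serves as read-out.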

[10] = target: T9, Human MMP2 (Homo sapiens, UniProt P08253); test: MMP2 inhibition experiment; type: biochemical; conditions: concentration required for 50% inhibition of enzyme activity; read-out: IC50 value MMP-2
T9 construct: purchased Calbiochem 444213
T9 sequence (P08253 110-660): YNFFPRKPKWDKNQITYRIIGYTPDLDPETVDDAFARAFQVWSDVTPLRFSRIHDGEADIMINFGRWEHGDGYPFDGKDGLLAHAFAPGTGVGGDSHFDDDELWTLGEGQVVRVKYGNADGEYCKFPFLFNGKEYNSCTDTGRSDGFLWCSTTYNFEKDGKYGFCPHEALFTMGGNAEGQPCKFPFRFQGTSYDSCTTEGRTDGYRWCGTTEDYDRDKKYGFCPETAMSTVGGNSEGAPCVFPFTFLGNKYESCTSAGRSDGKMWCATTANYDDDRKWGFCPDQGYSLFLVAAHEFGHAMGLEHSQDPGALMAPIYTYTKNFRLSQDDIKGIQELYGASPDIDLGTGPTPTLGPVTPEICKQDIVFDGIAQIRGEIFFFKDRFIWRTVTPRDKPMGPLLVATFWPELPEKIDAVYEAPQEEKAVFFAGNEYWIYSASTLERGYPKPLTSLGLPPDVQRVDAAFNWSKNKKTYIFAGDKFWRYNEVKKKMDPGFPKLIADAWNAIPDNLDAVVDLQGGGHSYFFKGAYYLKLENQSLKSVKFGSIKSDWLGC

IC50 [2] [µM]	IC50 [3] [µM]	IC50 [4] [µM]	IC50 [5] [µM]	IC50 [6] [µM]	IC50 [7] [µM]	IC50 ([8]; concentration required for 50% inhibition of enzyme activity) [µM]	IC50 [8] [µM]	IC50 [9] [µM]	IC50 [10] [µM]	Compound	Suppression rate of TNF-α production (release) (%) [1] [%]
17	50	3.4	> 100	3.1	> 100		0.012	33	12	Cc1cccc(CCC(CS(=O)(=O)c2ccc(OCc3cc(C)nc4ccccc34)cc2)N(O)C=O)n1 (stereo not drawn) [Example I-129]	
2.7	19	0.11	50	0.24	46		0.014	7	2.6	CCC(CC)C(=O)N1CCCC(C(CS(=O)(=O)c2ccc(OCc3cc(C)nc4ccccc34)cc2)N(O)C=O)C1 (stereo not drawn) [Example I-130]	
3.2	22	0.1	47	0.2	50		0.02	4.1	4.4	Cc1cc(COc2ccc(S(=O)(=O)CC(C3CCCN(C(=O)c4ccccc4)C3)N(O)C=O)cc2)c2ccccc2n1 (stereo not drawn) [Example I-131]	
2.2	16	0.085	53	0.21	40		0.023	8	2.2	CCC(CC)C(=O)N1CCC(C(CS(=O)(=O)c2ccc(OCc3cc(C)nc4ccccc34)cc2)N(O)C=O)CC1 (stereo not drawn) [Example I-132]	
26	50	0.62	48	2	50		0.0065	13	26	Cc1cc(COc2ccc(S(=O)(=O)CC([C@H]3CSC(=O)N3C)N(O)C=O)cc2)c2ccccc2n1 (stereo partly drawn) [Example I-136]	
50	> 100	0.9	> 100	3.2	> 100		0.024	23	> 100	Cc1cc(COc2ccc(S(=O)(=O)CC(N(O)C=O)C3(C)CCC(O)CC3)cc2)c2ccccc2n1 (stereo not drawn) [Example I-137]	
35	90	23	> 100	26	> 100		0.03	> 100	95	Cc1cccc(C(CS(=O)(=O)c2ccc(OCc3cc(C)nc4ccc(F)cc34)cc2)N(O)C=O)n1 (stereo not drawn) [Example I-149]	
18	58	2.4	> 100	4	> 100		0.0025	27	34	Cc1cncc(C(CS(=O)(=O)c2ccc(OCc3cc(C)nc4c(F)cccc34)cc2)N(O)C=O)c1 (stereo not drawn) [Example I-150]	

The next lines start with the compound.

Compound	IC50 [2] [µM]	IC50 [3] [µM]	IC50 [4] [µM]	IC50 [5] [µM]	IC50 [6] [µM]	IC50 [7] [µM]	IC50 ([8]; concentration required for 50% inhibition of enzyme activity) [µM]	IC50 [8] [µM]	IC50 [9] [µM]	IC50 [10] [µM]	Suppression rate of TNF-α production (release) (%) [1] [%]
Cc1cc(COc2ccc(S(=O)(=O)CC(CC3CCC(=O)CC3)N(O)C=O)cc2)c2ccccc2n1 (stereo not drawn) [Example I-2, N-Hydroxy-N-[2-{4-(2-methylquinolin-4-ylmethoxy)benzenesulfonyl}-1-(4-oxocyclohexylmethyl)ethyl]formamide]	6	53	0.4	60	1.5	50					42.3
Cc1cc(COc2ccc(S(=O)(=O)CC(C=C3CCN(CC(C)C)CC3)N(O)C=O)cc2)c2ccccc2n1 (stereo not drawn) [Example I-24, N-Hydroxy-N-{1-(1-isobutylpiperidin-4-ylidenemethyl)-2-[4-(2-methylquinolin-4-ylmethoxy)benzenesulfonyl]ethyl}formamide]	40		4		10		0.006				56.0
COCc1cc(COc2ccc(S(=O)(=O)CC(C=C3CCC(=NO)CC3)N(O)C=O)cc2)cc(C)n1 (stereo not drawn) [Example I-120]	62	> 100	33	> 100	68	> 100		0.11	27	22	
COCc1cc(COc2ccc(S(=O)(=O)CC(CC3CCC(=NO)CC3)N(O)C=O)cc2)cc(C)n1 (stereo not drawn) [Example I-122]	12	> 100	18	> 100	21	> 100		0.2	14	9	
Cc1cc(COc2ccc(S(=O)(=O)CC(c3ccccc3C)N(O)C=O)cc2)c2cccc(F)c2n1 (stereo not drawn) [Example I-124, N-{2-[4-(8-fluoro-2-methylquinolin-4-ylmethoxy)benzenesulfonyl]-1-o-tolylethyl}-N-hydroxyformamide]	5.8	7	4.8	34	4.8	24		0.006	1.9	1.9	
COCOC1CCC(C)(C(CS(=O)(=O)c2ccc(OCc3cc(C)nc4ccccc34)cc2)N(O)C=O)CC1 (stereo not drawn) [Example I-128]	22	50	0.54	> 100	1.3	> 100		0.032	25	43	
